# What was measured:
# Format in all cases: cell-based, Human
# [1] = tested on: COLO 205; test: MTS cell viability (cytotoxic activity) assay, COLO 205; settings: for IC50: Homo sapiens, COLO 205, MTS, 72 h, mean ± SD, at least three experiments
# Excerpt: (§1) Human colorectal cancer (COLO 205, CCL-222), breast cancer (MCF-7, HTB-22), chronic myelogenous leukemia (K-562, CCL-243), and umbilical vein/vascular endothelium (HUVEC, CRL-1730) cell lines were obtained from the American Type Culture Collection. The COLO 205, MCF-7, K-562, and HUVEC cell lines were maintained in Roswell Park Memorial Institute ([…], Wisent, Montreal, QC, CANADA), Eagle′s Minimum Essential Medium (EMEM, Wisent, Montreal, QC, CANADA), Iscove’s Modified Dulbecco’s Medium (IMDM, Wisent, Montreal, QC, CANADA), and Dulbecco′s Modified Eagle Medium (DMEM, Wisent, Montreal, QC, CANADA) supplemented with 10% fetal bovine serum (Capricorn, Ebsdorfergrund, Germany), 100 U/mL penicillin, and 100 µg/mL streptomycin (Wisent, Montreal, QC, CANADA), respectively. All of the cell lines were cultured at 37 °C in a humidified atmosphere containing 5% CO2.
# (§2) A 3-[4,5-dimethylthiazol-2-yl]-5-[3-carboxymethoxyphenyl]-2-[4-sulfophenyl]-2H-tetrazolium, inner salt (MTS) cell viability assay was performed to evaluate the cytotoxic activities of the sesquiterpene coumarin ethers isolated from Ferula huber-morathii. HUVEC (1 × 10^4), COLO 205 (3 × 10^4), K-562 (3 × 10^4), and MCF7 (5 × 10^4) were plated in 96-well plates. Then, 24 h later, the tested compounds were dissolved in DMSO, and the cells were exposed to the different concentrations (131.58–1.028 µM) of the compounds for 72 h. Cisplatin and doxorubicin were used as a positive control. Next, an MTS/phenazine methosulfate (PMS) (Promega, Madison, WI, USA and Sigma, St. Louis, MO, USA respectively) mixture was added to each well and incubated for 1–4 h at 37 °C. The absorbance was read on a microplate reader (Biotek, Winooski, VT, USA) at 490 nm. The cytotoxic activities of the compounds were expressed as an IC50 value. The % inhibition of cell proliferation was calculated using the formula: % Inhibition = [1-(A490test/A490cont)] × 100, where A490test = absorbance of the test sample and A490cont = absorbance of the control sample [88]. The values of the 50% inhibition of the cell proliferation (IC50) were calculated by locating the x-axis values corresponding to one-half of the absorbance values of the sample.
# [2] = tested on: K-562; test: MTS cell viability (cytotoxic activity) assay, K-562; settings: for IC50: Homo sapiens, K562, K-562, MTS, 72 h, mean ± SD, at least three experiments
# Excerpt: as §1, §2
# [3] = tested on: MCF-7; test: MTS cell viability (cytotoxic activity) assay, MCF-7; settings: for IC50: Homo sapiens, MCF7, MCF-7, MTS, 72 h, mean ± SD, at least three experiments; for cytotoxic effect in words, MCF-7: verbal summary
# Excerpt: as §1, §2
# [4] = tested on: HUVEC; test: MTS cell viability (cytotoxic activity) assay, non-cancerous HUVEC; settings: Homo sapiens, 72 h, mean ± SD, at least three experiments
# Excerpt: as §1, §2
# [5] = tested on: COLO 205, K-562, MCF-7 and HUVEC cell lines; test: MTS cytotoxicity, overall verbal grading over the cell line panel; settings: authors' verbal summary over COLO 205, K-562, MCF-7, HUVEC
# Excerpt: as §1, §2
SMILES,IC50 [1] [µM],IC50 [2] [µM],IC50 [3] [µM],IC50 [4] [µM],cytotoxicity in words [5],"cytotoxic effect in words, MCF-7 [3]",selectivity index COLO 205 ([1]; HUVEC versus COLO 205),selectivity index K-562 ([2]; HUVEC versus K-562),selectivity index MCF-7 ([3]; HUVEC versus MCF-7)
"C=C1CC[C@@H]2C(C)(C)C(=O)CC[C@@]2(C)[C@@H]1COc1ccc2ccc(=O)oc2c1 [Badrakemone (4), badrakemone]",> 200,> 200,> 200,> 200,little or no cytotoxicity,–,–,–,–
"CC(=O)O[C@@H]1CC[C@]2(C)[C@H](CC[C@@](C)(O)[C@@H]2COc2ccc3ccc(=O)oc3c2)C1(C)C [Ferukrin acetate (10), ferukrin acetate]",106 ± 1.35,88.42 ± 0.85,> 200,> 200,little or no cytotoxicity,–,–,–,–
"C=C1CCC2C(C)(C)C(OC(C)=O)CCC2(C)C1COc1ccc2ccc(=O)oc2c1 (centres unmarked) [Farnesiferol A acetate (7), farnesiferol A acetate]",66 ± 1.89,52.7 ± 0.9,27.4 ± 0.96,64.5 ± 1.56,moderate or strong cytotoxicity,moderate cytotoxic activity,–,–,–
"CC1(C)C(=O)CC[C@]2(C)[C@@H]1CC[C@](C)(O)[C@H]2COc1ccc2ccc(=O)oc2c1 [Samarcandone (13), samarcandone]",125 ± 2.13,> 200,> 200,190 ± 5.2,little or no cytotoxicity,–,–,–,–
"CC(=O)O[C@H]1CC[C@]2(C)[C@H](CC[C@@](C)(O)[C@@H]2COc2ccc3ccc(=O)oc3c2)C1(C)C [Kellerin (12), kellerin]",51.1 ± 1.57,78.1 ± 3.13,18.24 ± 0.12,99.4 ± 1.63,–,moderate cytotoxic effect,–,–,–
"C=C1CC[C@@H]2C(C)(C)[C@@H](O)CC[C@@]2(C)[C@H]1COc1ccc2ccc(=O)oc2c1 [Gummosin (8), gummosin]",> 200,95.5 ± 4.87,> 200,174.8 ± 0.28,little or no cytotoxicity,–,–,–,–
"COc1cccc2c1C(=O)c1c(O)c3c(c(O)c1C2=O)C[C@@](O)(C(=O)CO)C[C@@H]3O[C@H]1C[C@H](N)[C@H](O)[C@H](C)O1 [Doxorubicin, reference compound]",0.08,0.33 ± 0.02,2.83 ± 0.25,0.2 ± 0.02,–,–,–,–,–
"CC1(O)CCC2C(C)(C)C(O)CCC2(C)C1COc1ccc2ccc(=O)oc2c1 (centres unmarked) [Samarcandin (14), samarcandin]",170 ± 3.62,143 ± 1.67,83.27 ± 0.39,169 ± 2.68,little or no cytotoxicity,–,–,–,–
"CC(=O)O[C@H]1CC[C@]2(C)[C@H](CC[C@](C)(O)[C@H]2COc2ccc3ccc(=O)oc3c2)C1(C)C [Samarcandin acetate (15), samarcandin acetate]",70.29 ± 0.65,78.7 ± 1.65,> 200,> 200,little or no cytotoxicity,–,–,–,–
"CC1=CC[C@@H]2C(C)(C)[C@@H](O)CC[C@@]2(C)[C@@H]1COc1ccc2ccc(=O)oc2c1 [Conferol (2), conferol]",11.2 ± 0.68,35.2 ± 0.89,16 ± 0.46,61.03 ± 0.29,moderate or strong cytotoxicity,–,5.45,1.73,3.82
"CC1(C)[C@H]2CC[C@@](C)(O)[C@H](COc3ccc4ccc(=O)oc4c3)[C@]2(C)CC[C@@H]1O [Deacetylkellerin (11), deacetylkellerin]",> 200,> 200,47.62 ± 0.4,> 200,little or no cytotoxicity,–,–,–,–
"CC1(C)[C@H](O)CC[C@]2(C)[C@@H]1CC[C@@](C)(O)[C@@H]2COc1ccc2ccc(=O)oc2c1 [Ferukrin (9), ferukrin]",> 200,> 200,81.7 ± 1.96,> 200,little or no cytotoxicity,–,–,–,–
"CN1C[C@H](c2cccc(C#N)c2)Oc2ccccc2C1=O [Compound 6, reference compound]",–,–,–,–,little or no cytotoxicity,–,–,–,–
"C=C1CC[C@@H]2C(C)(C)[C@H](O)CC[C@@]2(C)[C@H]1COc1ccc2ccc(=O)oc2c1 [Farnesiferol A (6), farnesiferol A]",> 200,> 200,> 200,74.4 ± 1.19,–,–,–,–,–
